For test [1], the target named is Glucocorticoid receptor (Rattus norvegicus) (UniProt P06536). The test can be described thus: Inhibition of glucocorticoid receptor mediated tyrosine amino transferase activity.
For test [2], the target named is T1, Mineralocorticoid receptor (Homo sapiens, UniProt P08235).
T1 sequence (P08235 whole entry): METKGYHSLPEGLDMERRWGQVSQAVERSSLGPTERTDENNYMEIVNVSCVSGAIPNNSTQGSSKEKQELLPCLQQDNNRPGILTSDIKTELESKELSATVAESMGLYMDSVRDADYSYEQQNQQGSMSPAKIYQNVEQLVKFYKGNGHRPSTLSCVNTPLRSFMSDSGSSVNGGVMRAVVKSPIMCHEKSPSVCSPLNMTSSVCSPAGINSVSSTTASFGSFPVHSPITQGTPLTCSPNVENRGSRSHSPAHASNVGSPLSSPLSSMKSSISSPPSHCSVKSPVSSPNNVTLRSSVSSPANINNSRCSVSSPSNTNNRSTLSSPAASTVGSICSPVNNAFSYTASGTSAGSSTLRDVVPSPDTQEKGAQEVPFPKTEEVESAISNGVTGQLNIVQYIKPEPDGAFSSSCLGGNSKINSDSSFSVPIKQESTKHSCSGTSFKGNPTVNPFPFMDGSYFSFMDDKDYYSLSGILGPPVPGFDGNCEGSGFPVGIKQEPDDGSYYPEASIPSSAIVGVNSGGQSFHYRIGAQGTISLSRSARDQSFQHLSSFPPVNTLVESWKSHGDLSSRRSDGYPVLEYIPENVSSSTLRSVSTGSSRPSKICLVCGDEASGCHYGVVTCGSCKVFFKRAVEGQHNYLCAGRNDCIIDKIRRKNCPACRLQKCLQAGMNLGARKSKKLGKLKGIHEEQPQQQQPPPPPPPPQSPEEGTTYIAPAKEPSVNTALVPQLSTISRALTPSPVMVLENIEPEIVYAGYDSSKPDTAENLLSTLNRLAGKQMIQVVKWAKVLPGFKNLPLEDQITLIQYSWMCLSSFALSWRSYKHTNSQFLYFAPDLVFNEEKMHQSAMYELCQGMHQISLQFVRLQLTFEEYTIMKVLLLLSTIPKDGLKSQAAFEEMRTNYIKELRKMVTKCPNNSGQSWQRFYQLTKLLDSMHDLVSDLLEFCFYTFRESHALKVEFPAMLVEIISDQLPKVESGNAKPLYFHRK
Description: Inhibition of human Mineralocorticoid receptor

The target of the next test is T2, Progesterone receptor (Homo sapiens, UniProt P06401).
T2 sequence (P06401 whole entry): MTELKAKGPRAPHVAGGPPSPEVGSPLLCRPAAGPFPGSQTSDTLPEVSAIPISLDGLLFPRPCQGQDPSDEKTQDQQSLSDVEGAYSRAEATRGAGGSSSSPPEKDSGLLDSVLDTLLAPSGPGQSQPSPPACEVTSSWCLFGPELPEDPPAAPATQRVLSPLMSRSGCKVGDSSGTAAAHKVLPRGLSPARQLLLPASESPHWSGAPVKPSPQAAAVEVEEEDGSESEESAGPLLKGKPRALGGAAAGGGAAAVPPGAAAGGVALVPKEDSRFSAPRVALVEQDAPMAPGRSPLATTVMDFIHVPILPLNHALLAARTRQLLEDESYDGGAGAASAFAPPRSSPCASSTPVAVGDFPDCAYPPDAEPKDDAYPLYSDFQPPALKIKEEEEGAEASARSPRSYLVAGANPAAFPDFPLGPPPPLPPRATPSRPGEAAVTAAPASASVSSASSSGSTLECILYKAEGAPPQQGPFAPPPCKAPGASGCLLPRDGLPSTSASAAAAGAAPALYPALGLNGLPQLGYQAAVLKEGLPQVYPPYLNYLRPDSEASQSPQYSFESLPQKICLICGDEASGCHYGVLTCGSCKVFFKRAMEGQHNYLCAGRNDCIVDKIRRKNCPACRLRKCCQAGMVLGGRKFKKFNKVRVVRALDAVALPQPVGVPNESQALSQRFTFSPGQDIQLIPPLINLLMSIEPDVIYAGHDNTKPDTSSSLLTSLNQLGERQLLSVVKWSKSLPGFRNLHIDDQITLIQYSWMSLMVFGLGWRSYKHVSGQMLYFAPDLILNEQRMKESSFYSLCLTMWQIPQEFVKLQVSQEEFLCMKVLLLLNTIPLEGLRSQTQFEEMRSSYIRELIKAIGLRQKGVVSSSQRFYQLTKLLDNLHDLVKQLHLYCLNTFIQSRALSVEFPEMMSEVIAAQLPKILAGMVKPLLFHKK
The test can be described thus: Inhibition of human progesterone receptor.

Another test deals with T3, Glucocorticoid receptor (Homo sapiens, UniProt P04150).
T3 sequence (P04150 whole entry): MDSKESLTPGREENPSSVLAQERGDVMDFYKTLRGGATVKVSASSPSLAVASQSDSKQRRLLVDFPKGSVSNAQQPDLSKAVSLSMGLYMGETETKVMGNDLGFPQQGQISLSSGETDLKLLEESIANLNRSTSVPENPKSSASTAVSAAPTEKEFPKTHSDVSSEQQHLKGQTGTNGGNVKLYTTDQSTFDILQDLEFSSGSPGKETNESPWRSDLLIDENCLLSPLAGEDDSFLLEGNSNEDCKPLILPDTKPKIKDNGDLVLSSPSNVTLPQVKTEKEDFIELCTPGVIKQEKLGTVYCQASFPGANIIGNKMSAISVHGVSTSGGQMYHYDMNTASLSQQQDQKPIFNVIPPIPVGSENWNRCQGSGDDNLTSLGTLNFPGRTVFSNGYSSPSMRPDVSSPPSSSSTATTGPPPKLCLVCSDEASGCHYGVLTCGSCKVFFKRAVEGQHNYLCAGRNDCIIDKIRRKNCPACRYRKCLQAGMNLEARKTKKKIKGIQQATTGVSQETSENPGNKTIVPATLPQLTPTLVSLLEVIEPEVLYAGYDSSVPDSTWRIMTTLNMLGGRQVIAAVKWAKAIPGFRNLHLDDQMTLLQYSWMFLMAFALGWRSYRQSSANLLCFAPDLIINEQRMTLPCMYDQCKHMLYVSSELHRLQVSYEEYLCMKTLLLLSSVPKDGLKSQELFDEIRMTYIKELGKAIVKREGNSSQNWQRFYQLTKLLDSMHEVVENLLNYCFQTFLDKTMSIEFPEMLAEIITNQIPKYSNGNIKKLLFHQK
The test can be described thus: Inhibition of human glucocorticoid receptor.

Molecules are shown by their SMILES.

Glucocorticoid receptor (Rattus norvegicus), sequence (P06536 whole entry, looked up): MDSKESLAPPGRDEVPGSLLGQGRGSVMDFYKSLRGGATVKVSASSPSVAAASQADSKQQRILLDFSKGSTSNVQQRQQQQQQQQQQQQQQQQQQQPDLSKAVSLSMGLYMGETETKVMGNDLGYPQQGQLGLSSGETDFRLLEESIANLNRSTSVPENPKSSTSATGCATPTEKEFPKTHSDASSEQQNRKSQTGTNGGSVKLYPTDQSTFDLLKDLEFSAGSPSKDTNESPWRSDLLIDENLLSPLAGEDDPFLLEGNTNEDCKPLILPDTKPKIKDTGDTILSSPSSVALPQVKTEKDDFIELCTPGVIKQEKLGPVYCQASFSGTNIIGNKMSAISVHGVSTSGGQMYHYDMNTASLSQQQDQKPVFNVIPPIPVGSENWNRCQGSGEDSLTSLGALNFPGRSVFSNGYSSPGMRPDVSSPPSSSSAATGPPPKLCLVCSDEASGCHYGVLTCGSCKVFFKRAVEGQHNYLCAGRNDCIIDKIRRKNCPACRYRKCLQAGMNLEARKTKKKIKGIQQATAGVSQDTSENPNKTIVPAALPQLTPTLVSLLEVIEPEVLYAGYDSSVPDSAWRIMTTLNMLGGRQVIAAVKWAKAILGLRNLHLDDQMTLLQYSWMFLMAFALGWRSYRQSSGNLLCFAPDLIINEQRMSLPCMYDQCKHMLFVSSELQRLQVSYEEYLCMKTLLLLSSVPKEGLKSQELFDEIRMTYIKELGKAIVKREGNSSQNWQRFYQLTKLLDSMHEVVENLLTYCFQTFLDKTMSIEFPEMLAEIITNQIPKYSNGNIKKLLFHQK

As to `C#C[C@]1(O)CC[C@H]2[C@@H]3CCC4=CC(=O)CCC4=C3[C@@H](c3ccc(N(C)CCOC4CC[C@@]5(C)[C@@H](C4)C[C@@H](O)[C@@H]4[C@@H]5C[C@H](O)[C@]5(C)[C@@H]([C@H](C)CCC(=O)O)CC[C@@H]45)cc3)C[C@@]21C` (stereo in doubt; form 1), the Ki was 220 nM in test [1], more than 1000 nM in test [2], 3.3 nM on Progesterone receptor and 0.67 nM at Glucocorticoid receptor.
`C#C[C@]1(O)CC[C@H]2[C@@H]3CCC4=CC(=O)CCC4=C3[C@@H](c3ccc(N(C)CCNC(=O)N(C)C4CC[C@@]5(C)[C@@H](C4)C[C@@H](O)[C@@H]4[C@@H]5C[C@H](O)[C@]5(C)[C@@H]([C@H](C)CCC(=O)O)CC[C@@H]45)cc3)C[C@@]21C` (stereo partly drawn): the Ki in test [1] amounted to 34 nM; in test [2] it was 850 nM; on Progesterone receptor, 3.5 nM; at Glucocorticoid receptor it was 0.3 nM.
